# Patent publication US20050153412A1, “Aldehyde dehydrogenase II” (priority 2002, published 2005)
# Like-named read-outs stand apart in the source and are kept apart here.
# How the values were obtained:
# Assay type in all cases: biochemical, Gluconobacter oxydans DSM No. 4025 (FERM BP-3812)
# [1] = target: T1, SNDH II (aldehyde dehydrogenase) (Ketogulonicigenium vulgare, UniProt Q402A8); test: Effect of inhibitors and metals on L-sorbosone dehydrogenase activity, photometrical DCIP assay
# Procedure: (§1) The reaction mixture consisted of 0.1 mM DCIP, 1.0 mM PMS, 50 mM potassium phosphate buffer (pH 7.0), 1.0 μM PQQ, 2 to 100 mM substrate (L-sorbosone, D-glucosone, D-glucose, etc.) and enzyme solution in a final volume of 100 μl water, said reaction mixture was prepared just before the assay. The reaction was started at 25° C. with L-sorbosone, and the enzyme activity was measured as the initial reduction rate of DCIP at 600 nm. One unit of the enzyme activity was defined as the amount of the enzyme catalyzing the reduction of 1 μmol DCIP per minute. The extinction coefficient of DCIP at pH 7.0 was taken as 14.2 mM^−1. A reference cuvette contained all the above constituents except for L-sorbosone.
# The effects of metal ions and inhibitors on the L-sorbosone dehydrogenase activity of the enzyme were examined by measuring the activity using the same assay method as described under 1b) above. Each compound solution was stirred into the basal reaction mixture and the reaction was started with the addition of the enzyme.
# Each compound was added to the reaction mixture at a concentration of 1.0 mM, with the exception that the concentrations of EDTA, NaN3 and monoiodoacetate were 5.0 mM.
# [2] = target: T1, SNDH II (aldehyde dehydrogenase); test: Substrate specificity of the purified enzyme, photometrical DCIP assay; details: for Relative activity compared with that for L-sorbosone (2 mM): at both pH 7.5 and 9.0, D-glucosone 2 mM, others 100 mM; for Product (deduced product of the oxidation of the substrate): substrates of Table 1A; for Relative activity (%): L-sorbosone and D-glucosone 2 mM, other substrates 100 mM, L-sorbosone = 100
# Procedure: as §1
# a) The substrate specificity of the enzyme was determined using the same enzyme assay method as described under 1b) above with the exception of using 100 mM potassium phosphate (pH 7.5) or 100 mM Tris-HCl (pH 9.0) as buffer. The relative activity of SNDH II for D-glucosone (2 mM), D-glucose (100 mM), and D-xylose (100 mM) was higher than that for L-sorbosone (2 mM) at both pH 7.5 and 9.0. However, the relative activity for L-sorbose (100 mM), D-sorbitol (100 mM), and L-gulono-γ-lactone (100 mM) was lower than 1% of that for L-sorbosone at both pH 7.5 and 9.0.
# [3] = target: T1, SNDH II (aldehyde dehydrogenase); test: Electron acceptor suitability for conversion of L-sorbosone; details: conversion of L-sorbosone to vitamin C and/or 2-KGA
# Source text: This was affirmed by the failure of the enzyme to convert L-sorbosone to vitamin C and/or 2-KGA using oxygen as a possible electron acceptor. Furthermore, no oxygen consumption was detected in the reaction mixture as detected with a dissolved oxygen probe. […] However, other conventional electron acceptors can be utilized in conjunction with the enzyme of this invention. Preferred electron acceptors are phenazine methosulfate (PMS), 2,6-dichlorophenolindophenol (DCIP), ferricyanide and cytochrome c. There is no minimum amount of electron acceptors which must be present for at least some of the aldehyde substrate to be converted to its corresponding acid. However, the amount of substrate which can be oxidized depends on the amount of the particular electron acceptor and its electron accepting characteristics.
# [4] = compound at 1.0 mM, None = 100.0
# [5] = pH 7.5, 100 mM potassium phosphate
# T1 sequence (Q402A8 entry or part of it): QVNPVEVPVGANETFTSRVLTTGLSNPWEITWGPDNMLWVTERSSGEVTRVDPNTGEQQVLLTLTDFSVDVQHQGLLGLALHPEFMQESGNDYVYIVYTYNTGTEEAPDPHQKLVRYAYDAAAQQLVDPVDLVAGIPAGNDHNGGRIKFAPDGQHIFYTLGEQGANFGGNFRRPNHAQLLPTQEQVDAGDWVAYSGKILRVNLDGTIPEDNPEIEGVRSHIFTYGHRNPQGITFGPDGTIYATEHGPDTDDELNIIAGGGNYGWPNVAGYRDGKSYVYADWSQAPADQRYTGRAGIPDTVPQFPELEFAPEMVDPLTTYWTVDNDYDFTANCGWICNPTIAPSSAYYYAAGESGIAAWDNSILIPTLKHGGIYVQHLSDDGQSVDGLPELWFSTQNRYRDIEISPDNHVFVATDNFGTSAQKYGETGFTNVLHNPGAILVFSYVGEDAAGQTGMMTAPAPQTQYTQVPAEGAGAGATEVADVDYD
structure (smiles),measurement,setting,value
O.O.O.O.O.O.O=S(=O)([O-])[O-].[Ni+2] [NiSO4.6H2O],Relative activity (%),[1]; [4],82.9%
same,Effect on the enzyme activity,"[1]; metal ions, 1.0 mM",inhibited
O=C[C@H](O)[C@@H](O)[C@H](O)[C@H](O)CO [D-Glucose],Relative activity compared with that for L-sorbosone (2 mM),[2],higher
same,Product (deduced product of the oxidation of the substrate),[2],D-Gluconate
O=CC(=O)[C@@H](O)[C@H](O)[C@H](O)CO [D-Glucosone],Relative activity compared with that for L-sorbosone (2 mM),[2],higher
same,Relative activity (%),[2]; [5],483%
same,Product (deduced product of the oxidation of the substrate),[2],D-iso-Ascorbic acid/2-Keto-D-gluconate
OC[C@@H](O)[C@@H](O)[C@H](O)[C@@H](O)CO [D-Sorbitol],Relative activity (%),[2]; [5],<1%
same,Relative activity (%),"[2]; pH 9.0, 100 mM Tris-HCl",<1%
[Cl-].[Cl-].[Mg+2] [MgCl2],Relative activity (%),[1]; [4],88.5%
O.O.[Ca+2].[Cl-].[Cl-] [CaCl2.2H2O],Relative activity (%),[1]; [4],94.7%
NC(=O)c1ccc[n+]([C@@H]2O[C@H](COP(=O)([O-])OP(=O)(O)OC[C@H]3O[C@@H](n4cnc5c(N)ncnc54)[C@H](O)[C@@H]3O)[C@@H](O)[C@H]2O)c1 [NAD],Suitability as electron acceptor,[3],not suitable electron acceptors
O=C(O)CI [Monoiodoacetate],Effect on the enzyme activity,[1],strongly inhibited
same,Relative activity (%),[1],34.7%
O=C[C@H](O)[C@@H](O)[C@H](O)CO [D-Xylose],Relative activity compared with that for L-sorbosone (2 mM),[2],higher
same,Product (deduced product of the oxidation of the substrate),[2],D-Xylonic acid
O=C1O[C@H]([C@@H](O)CO)[C@H](O)[C@@H]1O [L-Gulono-γ-lactone],Relative activity (%),[2]; [5],<1%
same,Relative activity (%),"[2]; pH 9.0, 100 mM Tris-HCl",<1%
[N-]=[N+]=[N-].[Na+] [NaN3],Relative activity (%),"[1]; compound at 5.0 mM, None = 100.0",98.4%
[Cl][Ti]([Cl])([Cl])[Cl] [TiCl4],Relative activity (%),[1]; [4],95.9%
O=CC(=O)[C@@H](O)[C@H](O)[C@@H](O)CO [L-Sorbosone],Relative activity (%),[2]; [5],100%
same,Relative activity (%),"[2]; pH 9.0, 100 mM Tris-HCl",100%
same,Product (deduced product of the oxidation of the substrate),[2],Vitamin C/2-KGA
O=O [oxygen],Suitability as electron acceptor,[3],does not work
O=S(=O)([O-])[O-].O=S(=O)([O-])[O-].O=S(=O)([O-])[O-].[Fe+3].[Fe+3] [Fe2(SO4)3.xH2O],Relative activity (%),[1]; [4],73.2%
same,Effect on the enzyme activity,"[1]; metal ions, 1.0 mM",inhibited
O=S(=O)([O-])[O-].[Cu+2] [CuSO4],Relative activity (%),[1]; [4],<1%
same,Effect on the enzyme activity,"[1]; metal ions, 1.0 mM",inhibited
O.O.O.O.O.O.[Cl-].[Cl-].[Co+2] [CoCl2.6H2O],Relative activity (%),[1]; [4],60.8%
same,Effect on the enzyme activity,"[1]; metal ions, 1.0 mM",inhibited
O=C(O)CN(CCN(CC(=O)O)CC(=O)O)CC(=O)O [EDTA],Relative activity (%),[1],97.9%
O=C(CO)[C@@H](O)[C@H](O)[C@@H](O)CO [L-Sorbose],Relative activity (%),[2]; [5],<1%
same,Relative activity (%),"[2]; pH 9.0, 100 mM Tris-HCl",<1%
[Cl-].[Cl-].[Zn+2] [ZnCl2],Relative activity (%),[1]; [4],64.9%
same,Effect on the enzyme activity,"[1]; metal ions, 1.0 mM",inhibited
NC(=O)c1ccc[n+]([C@H]2O[C@@H](COP(=O)([O-])OP(=O)(O)OC[C@H]3O[C@@H](n4cnc5c(N)ncnc54)[C@H](OP(=O)(O)O)[C@@H]3O)[C@H](O)[C@@H]2O)c1 [NADP],Suitability as electron acceptor,[3],not suitable electron acceptors
